Reference: US4767621A (priority 1982, dated 1988)

Experiments:
[1] = system: human T lymphoblastoid cells of the CEM line bearing the antigen T-65
[2] = system: mouse; settings: intra-peritoneally, Westley 1977; cited from earlier work
[3] = Acute toxicity of monensin, single intra-peritoneal administration (own experiments); assay type: in vivo, mouse; settings: mouse, in vivo, ip; single administration intra-peritoneally; read-out: 50% lethal dose, per body weight
Procedure: (§1) Thus the acute toxicity of monensin in a single administration intra-peritoneally in the Charles River France mouse is characterised by a 50% lethal dose of 340 micrograms per mouse, namely 17 mg/kg of body weight.

[4] = system: Charles River France mouse; assay: as above; assay type: in vivo; settings: single administration intra-peritoneally
Procedure: as §1

Compound | potentiating effect (factor) on the cytotoxicity of immunotoxin anti-T-65 [1] | spontaneous cytotoxicity of the ionophore for the cells employed [1] | 50% lethal dose (LD50) [2] [mg/kg] | LD50 [3] [mg/kg] | 50% lethal dose, per mouse [4] [micrograms per mouse]
CC[C@@H](C(=O)[C@@H](C)[C@@H](O)[C@H](C)CCc1ccc(C)c(O)c1C(=O)O)[C@H]1O[C@](CC)([C@H]2CC[C@](O)(CC)[C@H](C)O2)C[C@@H]1C [Lasalocide, lasalocide] | ~36000 | not spontaneously cytotoxic | 64 |  | 
CC[C@@]1([C@@H]2O[C@@H]([C@H]3O[C@@](O)(CO)[C@H](C)C[C@@H]3C)C[C@@H]2C)CC[C@H]([C@]2(C)CC[C@]3(C[C@H](O)[C@@H](C)[C@@H]([C@@H](C)[C@@H](OC)[C@H](C)C(=O)O)O3)O2)O1 [Monensin, monensin] | ~55000 | not spontaneously cytotoxic | 16.8 | 17 | 340
CO[C@@H]1C[C@@H](C[C@H]2CC[C@H](C)[C@H]([C@@H](C)C(=O)O)O2)O[C@]2(O[C@](C)([C@H]3CC[C@@](C)([C@@H]4O[C@@H]([C@H]5O[C@@](O)(CO)[C@H](C)C[C@@H]5C)C[C@@H]4C)O3)C[C@H]2C)[C@@H]1C [Nigericin, nigericin] | ~7000 | not spontaneously cytotoxic | 65 |  | 
